Columns and labels:
Assay in all cases: relative viability (nuclei count vs DMSO), 5 days (fraction); higher = more cells survive
Idelalisib + Luminespib = compound: CC[C@H](Nc1ncnc2[nH]cnc12)c1nc2cccc(F)c2c(=O)n1-c1ccccc1 [Idelalisib] + CCNC(=O)c1noc(-c2cc(C(C)C)c(O)cc2O)c1-c1ccc(CN2CCOCC2)cc1 [Luminespib] (partner 0.01 µM)
How it was run: (§1)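 For relative viability, nuclei counts in treated wells were divided by those in vehicle wells. Lung cancer cell lines had been pin-tool dosed in 1536-well plates the day after seeding and cultured for 5 days, then fixed and stained in one step (final 0.05% Triton X-100, 1% formaldehyde, 1 ug/ml Hoechst) and imaged at 4×. Doses were one drug alone or a fixed anchor-drug dose plus five library-drug doses (not always all listed) in √10 steps, and values are duplicate-plate medians.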

Idelalisib + Palbociclib = compound: CC[C@H](Nc1ncnc2[nH]cnc12)c1nc2cccc(F)c2c(=O)n1-c1ccccc1 [Idelalisib] + CC(=O)c1c(C)c2cnc(Nc3ccc(N4CCNCC4)cn3)nc2n(C2CCCC2)c1=O [Palbociclib] (partner 0.5 µM)
How it was run: as §1

Pemetrexed + AZD7762 = compound: Nc1nc2[nH]cc(CCc3ccc(C(=O)N[C@@H](CCC(=O)O)C(=O)O)cc3)c2c(=O)[nH]1 [Pemetrexed] + NC(=O)Nc1cc(-c2cccc(F)c2)sc1C(=O)N[C@H]1CCCNC1 [AZD7762] (partner 0.2 µM)
How it was run: as §1

Idelalisib + AZD7762 = compound: CC[C@H](Nc1ncnc2[nH]cnc12)c1nc2cccc(F)c2c(=O)n1-c1ccccc1 [Idelalisib] + NC(=O)Nc1cc(-c2cccc(F)c2)sc1C(=O)N[C@H]1CCCNC1 [AZD7762] (partner 0.2 µM)
How it was run: as §1

| Cell Line | relative viability (Idelalisib + Luminespib; first compound 0.04 µM) | relative viability (Idelalisib + Luminespib; first compound 0.1265 µM) | relative viability (Idelalisib + Luminespib; first compound 0.4 µM) | relative viability (Idelalisib + Luminespib; first compound 1.265 µM) | relative viability (Idelalisib + Luminespib; first compound 4 µM) | relative viability (Idelalisib + Palbociclib; first compound 0.04 µM) | relative viability (Idelalisib + Palbociclib; first compound 0.1265 µM) | relative viability (Idelalisib + Palbociclib; first compound 0.4 µM) | relative viability (Idelalisib + Palbociclib; first compound 1.265 µM) | relative viability (Idelalisib + Palbociclib; first compound 4 µM) | relative viability (Pemetrexed + AZD7762; first compound 0.002 µM) | relative viability (Pemetrexed + AZD7762; first compound 0.006325 µM) | relative viability (Pemetrexed + AZD7762; first compound 0.02 µM) | relative viability (Pemetrexed + AZD7762; first compound 0.06325 µM) | relative viability (Pemetrexed + AZD7762; first compound 0.2 µM) | relative viability (Idelalisib + AZD7762; first compound 0.04 µM) | relative viability (Idelalisib + AZD7762; first compound 0.1265 µM) | relative viability (Idelalisib + AZD7762; first compound 0.4 µM) | relative viability (Idelalisib + AZD7762; first compound 1.265 µM) | relative viability (Idelalisib + AZD7762; first compound 4 µM) |
| --- | --- | --- | --- | --- | --- | --- | --- | --- | --- | --- | --- | --- | --- | --- | --- | --- | --- | --- | --- | --- |
| RERF-LC-KJ | 1.31 | 1.33 | 1.12 | 1.19 | 1.07 | 1.12 | 1.06 | 1.02 | 0.965 | 0.759 | 0.837 | 1.49 | 0.919 | 1.04 | 0.618 | 1.05 | 0.947 | 0.924 | 1.06 | 0.783 |
| SW 900 | 0.21 | 0.193 | 0.152 | 0.183 | 0.165 | 0.493 | 0.543 | 0.397 | 0.531 | 0.407 | 0.692 | 0.599 | 0.609 | 0.497 | 0.376 | 0.569 | 0.609 | 0.416 | 0.3 | 0.463 |

Source: the supplement of paper PMC10307832
